Measurements taken from paper PMC11243685, “Synthesis and Enzymatic Evaluation of a Small Library of Substituted Phenylsulfonamido-Alkyl Sulfamates towards Carbonic Anhydrase II” (Molecules, 2024).

How the values were obtained:
[1] = target: T1, bovine carbonic anhydrase II (Bos taurus, UniProt P00921); test: Enzymatic assay of bCA II inhibition, absorbance at 415 nm; assay type: biochemical; details: for inhibition at 1 µM: 1 μM concentration of the inhibitor, triplicate with three technical replicas; for Ki: CA II, from Lineweaver–Burk, Dixon and Cornish Bowden plots, read-out: Inhibition constant Ki;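 for all read-outs here: enzyme is carbonic anhydrase II isolated from bovine erythrocytes, with its activity followed photometrically at 415 nm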
T1 construct: carbonic anhydrase II (bCAII, ≥3000 W-A units/mg from bovine erythrocytes) from Sigma; purchased Sigma (Taufkirchen, Germany); host or cells: isolated from bovine erythrocytes
T1 sequence (P00921 whole entry): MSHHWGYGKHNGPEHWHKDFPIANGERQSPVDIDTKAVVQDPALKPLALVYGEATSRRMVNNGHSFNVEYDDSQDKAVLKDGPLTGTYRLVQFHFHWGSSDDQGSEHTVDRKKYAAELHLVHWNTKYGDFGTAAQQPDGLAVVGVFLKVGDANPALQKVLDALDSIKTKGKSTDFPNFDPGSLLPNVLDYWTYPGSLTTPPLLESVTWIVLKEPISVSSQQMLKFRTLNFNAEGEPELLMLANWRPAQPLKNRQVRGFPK
Experimental: The enzymatic assays have been performed with carbonic anhydrase II (bCAII, ≥3000 W-A units/mg from bovine erythrocytes) from Sigma (Taufkirchen, Germany) using a BMG Labtech Spectrostar Omega apparatus (BMG Labtech, Ortenberg, Germany) measuring λ = 415 nm. Conditions have been described previously [72]. Ki and Ki′ values were determined from Lineweaver–Burk, Dixon and Cornish Bowden plots, respectively.

| inhibition at 1 µM ([1]; bCA II) [%] | melting point [°C] | Ki [1] [µM] | mode of inhibition ([1]; bCA II) | Compound |
| --- | --- | --- | --- | --- |
| 36.1 ± 1.8 | 94 to 96 | – | – | NS(=O)(=O)OCCCCCCCCCNS(=O)(=O)c1ccc(C23CC4CC(CC(C4)C2)C3)cc1 [78b, 9-[(4-(Adamantan-1-yl)phenyl)sulfonamido]nonyl Sulfamate] |
| 60.3 ± 0.9 | 83 to 84 | – | – | CC(C)c1ccc(S(=O)(=O)NCCCOS(N)(=O)=O)cc1 [34b, 3-[(4-Isopropylphenyl)sulfonamido]propyl Sulfamate] |
| 75.6 ± 0.4 | 92 to 93 | 0.67 ± 0.05 | competitive inhibitor | CC(C)(C)c1ccc(S(=O)(=O)NCCOS(N)(=O)=O)cc1 [49b, 2-[(4-(tert-Butyl)phenyl)sulfonamido]ethyl Sulfamate] |
| 40.1 ± 0.8 | 87 to 89 | – | – | NS(=O)(=O)OCCCCCCCCCCNS(=O)(=O)c1ccc(C23CC4CC(CC(C4)C2)C3)cc1 [79b, 10-[(4-(Adamantan-1-yl)phenyl)sulfonamido]decyl Sulfamate] |
| 32.6 ± 0.4 | 85 to 86 | – | – | NS(=O)(=O)OCCCCCCCCNS(=O)(=O)c1ccc(C23CC4CC(CC(C4)C2)C3)cc1 [77b, 8-[(4-(Adamantan-1-yl)phenyl)sulfonamido]octyl Sulfamate] |
| 30.3 ± 0.1 | 70 to 72 | – | – | CC(C)c1ccc(S(=O)(=O)NCCCCCCCOS(N)(=O)=O)cc1 [38b, 7-[(4-Isopropylphenyl)sulfonamido]heptyl Sulfamate] |
| 35.9 ± 0.4 | 88 to 89 | – | – | CC(C)(C)c1ccc(S(=O)(=O)NCCCCCOS(N)(=O)=O)cc1 [52b, 5-[(4-(tert-Butyl)phenyl)sulfonamido]pentyl Sulfamate] |
| 8.6 ± 0.6 | 86 to 88 | – | – | NS(=O)(=O)OCCCCCCNS(=O)(=O)c1ccc(C2CCCCC2)cc1 [72b, 6-[(4-Cyclohexylphenyl)sulfonamido]hexyl Sulfamate] |
| 21.3 ± 1 | 79 to 81 | – | – | CC(C)(C)c1ccc(S(=O)(=O)NCCCCCCCCOS(N)(=O)=O)cc1 [55b, 8-[(4-(tert-Butyl)phenyl)sulfonamido]octyl Sulfamate] |
| 43.7 ± 0.4 | 95 to 97 | – | – | CC(C)c1ccc(S(=O)(=O)NCCCCOS(N)(=O)=O)cc1 [35b, 4-[(4-Isopropylphenyl)sulfonamido]butyl Sulfamate] |
| 29.1 ± 0.9 | 89 to 90 | – | – | CC(C)(C)c1ccc(S(=O)(=O)NCCCCCCOS(N)(=O)=O)cc1 [53b, 6-[(4-(tert-Butyl)phenyl)sulfonamido]hexyl Sulfamate] |
| 45.9 ± 0.7 | 102 to 103 | – | – | CC(C)c1ccc(S(=O)(=O)NCCCCCCOS(N)(=O)=O)cc1 [37b, 6-[(4-Isopropylphenyl)sulfonamido]hexyl Sulfamate] |
| 10 ± 0.6 | 106 to 107 | – | – | CC(C)(C)c1ccc(S(=O)(=O)NCCCCCCCCCOS(N)(=O)=O)cc1 [56b, 9-[(4-(tert-Butyl)phenyl)sulfonamido]nonyl Sulfamate] |
| 20.6 ± 0.6 | 92 to 93 | – | – | CC(C)(C)c1ccc(S(=O)(=O)NCCCCCCCCCCOS(N)(=O)=O)cc1 [57b, 10-[(4-(tert-Butyl)phenyl)sulfonamido]decyl Sulfamate] |
| 16 ± 0.4 | 57 to 59 | – | – | CC(C)(C)c1cccc(S(=O)(=O)NCCCCCCCCOS(N)(=O)=O)c1 [64b, 8-[(3-(tert-Butyl)phenyl)sulfonamido]octyl Sulfamate] |
| 28.4 ± 0.4 | 95 to 96 | – | – | CC(C)(C)c1ccc(S(=O)(=O)NCCCCCCCOS(N)(=O)=O)cc1 [54b, 7-[(4-(tert-Butyl)phenyl)sulfonamido]heptyl Sulfamate] |
| 32.1 ± 0.8 | 88 to 89 | – | – | NS(=O)(=O)OCCCCCCCCCNS(=O)(=O)c1ccc(C2CCCCC2)cc1 [75b, 9-[(4-Cyclohexylphenyl)sulfonamido]nonyl Sulfamate] |
| 28.1 ± 0.5 | 69 to 70 | – | – | CC(C)c1ccc(S(=O)(=O)NCCCCCCCCOS(N)(=O)=O)cc1 [39b, 8-[(4-Isopropylphenyl)sulfonamido]octyl Sulfamate] |
| 40.8 ± 0.6 | 95 to 97 | – | – | CC(C)c1ccc(S(=O)(=O)NCCCCCOS(N)(=O)=O)cc1 [36b, 5-[(4-Isopropylphenyl)sulfonamido]pentyl Sulfamate] |
| 44.9 ± 0.4 | 100 to 102 | – | – | CC(C)(C)c1ccc(S(=O)(=O)NCCCCOS(N)(=O)=O)cc1 [51b, 4-[(4-(tert-Butyl)phenyl)sulfonamido]butyl Sulfamate] |
| 63.4 ± 0.6 | 85 to 86 | – | – | CC(C)(C)c1ccc(S(=O)(=O)NCCCOS(N)(=O)=O)cc1 [50b, 3-[(4-(tert-Butyl)phenyl)sulfonamido]propyl Sulfamate] |

Second part, the compound before the results:

| Compound | inhibition at 1 µM ([1]; bCA II) [%] | melting point [°C] | Ki [1] [µM] | mode of inhibition ([1]; bCA II) |
| --- | --- | --- | --- | --- |
| Cc1ccc(S(=O)(=O)NCCCCCCCOS(N)(=O)=O)cc1 [17b, 7-[(4-Methylphenyl)sulfonamido]heptyl Sulfamate] | 42.8 ± 0.5 | 85 to 86 | – | – |
| Cc1cccc(S(=O)(=O)NCCCCCOS(N)(=O)=O)c1 [22b, 5-[(3-Methylphenyl)sulfonamido]pentyl Sulfamate] | 49.1 ± 0.2 | 67 to 68 | – | – |
| NS(=O)(=O)OCCCCCCNS(=O)(=O)c1ccccc1 [5b, 6-(Phenylsulfonamido]hexyl Sulfamate] | 56 ± 0.5 | 64 to 66 | – | – |
| Cc1cccc(S(=O)(=O)NCCCCCCOS(N)(=O)=O)c1 [23b, 6-[(3-Methylphenyl)sulfonamido]hexyl Sulfamate] | 51.8 ± 0.7 | 74 to 75 | – | – |
| Cc1ccc(S(=O)(=O)NCCCOS(N)(=O)=O)cc1 [13b, 3-[(4-Methylphenyl)sulfonamido]propyl Sulfamate] | 63.8 ± 0.8 | 86 to 87 | – | – |
| Cc1ccc(S(=O)(=O)NCCOS(N)(=O)=O)cc1 [12b, 2-[(4-Methylphenyl)sulfonamido]ethyl Sulfamate] | 75.8 ± 0.6 | 79 to 81 | 0.76 ± 0.03 | – |
| NS(=O)(=O)OCCCCCCCCCCNS(=O)(=O)c1ccccc1 [9b, 10-(Phenylsulfonamido]decyl Sulfamate] | 10.7 ± 0.4 | 89 to 91 | – | – |
| Cc1ccccc1S(=O)(=O)NCCOS(N)(=O)=O [26b, 2-[(2-Methylphenyl)sulfonamido]ethyl Sulfamate] | 69.1 ± 0.7 | 70 to 72 | 1.1 ± 0.03 | – |
| Cc1cccc(S(=O)(=O)NCCCOS(N)(=O)=O)c1 [20b, 3-[(3-Methylphenyl)sulfonamido]propyl Sulfamate] | 48.4 ± 0.1 | 73 to 74 | – | – |
| NS(=O)(=O)OCCCCCCCNS(=O)(=O)c1ccccc1 [6b, 7-(Phenylsulfonamido]heptyl Sulfamate] | 56 ± 0.8 | 59 to 61 | – | – |
| Cc1ccc(S(=O)(=O)NCCCCCCOS(N)(=O)=O)cc1 [16b, 6-[(4-Methylphenyl)sulfonamido]hexyl Sulfamate] | 40.3 ± 0.7 | 49 to 50 | – | – |
| CC(C)c1ccc(S(=O)(=O)NCCOS(N)(=O)=O)cc1 [33b, 2-[(4-Isopropylphenyl)sulfonamido]ethyl Sulfamate] | 63.2 ± 0.4 | 81 to 82 | 0.84 ± 0.02 | – |
| Cc1cccc(S(=O)(=O)NCCOS(N)(=O)=O)c1 [19b, 2-[(3-Methylphenyl)sulfonamido]ethyl Sulfamate] | 59.5 ± 0.1 | 36 to 38 | – | – |
| Cc1cccc(S(=O)(=O)NCCCCCCCOS(N)(=O)=O)c1 [24b, 7-[(3-Methylphenyl)sulfonamido]heptyl Sulfamate] | 27.1 ± 0.9 | 55 to 57 | – | – |
| NS(=O)(=O)OCCCCCCCCCCCCNS(=O)(=O)c1ccccc1 [11b, 12-(Phenylsulfonamido]dodecyl Sulfamate] | 5.9 ± 0.9 | 102 to 103 | – | – |
| NS(=O)(=O)OCCCCCCCCNS(=O)(=O)c1ccccc1 [7b, 8-(Phenylsulfonamido]octyl Sulfamate] | 60.2 ± 0.7 | 77 to 78 | – | – |
| Cc1cccc(S(=O)(=O)NCCCCOS(N)(=O)=O)c1 [21b, 4-[(3-Methylphenyl)sulfonamido]butyl Sulfamate] | 32.2 ± 0.6 | 62 to 64 | – | – |
| Cc1ccccc1S(=O)(=O)NCCCOS(N)(=O)=O [27b, 3-[(2-Methylphenyl)sulfonamido]propyl Sulfamate] | 50 ± 0.8 | 68 to 70 | – | – |
| Cc1cccc(S(=O)(=O)NCCCCCCCCOS(N)(=O)=O)c1 [25b, 8-[(3-Methylphenyl)sulfonamido]octyl Sulfamate] | 38.8 ± 0.1 | 54 to 56 | – | – |
| Cc1ccc(S(=O)(=O)NCCCCCOS(N)(=O)=O)cc1 [15b, 5-[(4-Methylphenyl)sulfonamido]pentyl Sulfamate] | 58.9 ± 0.2 | 94 to 95 | – | – |
| NS(=O)(=O)OCCCCCCCCCNS(=O)(=O)c1ccccc1 [8b, 9-(Phenylsulfonamido]nonyl Sulfamate] | 55.4 ± 0.7 | 82 to 84 | – | – |
| Cc1ccc(S(=O)(=O)NCCCCOS(N)(=O)=O)cc1 [14b, 4-[(4-Methylphenyl)sulfonamido]butyl Sulfamate] | 42.9 ± 0.1 | 66 to 68 | – | – |
| Cc1ccc(S(=O)(=O)NCCCCCCCCOS(N)(=O)=O)cc1 [18b, 8-[(4-Methylphenyl)sulfonamido]octyl Sulfamate] | 54.7 ± 0.6 | 98 to 100 | – | – |
| NS(=O)(=O)OCCCCCCCCCCCNS(=O)(=O)c1ccccc1 [10b, 11-(Phenylsulfonamido]undecyl Sulfamate] | 7.2 ± 0.9 | 95 to 97 | – | – |
| Cc1ccc(S(=O)(=O)NCCCCCO)cc1 [15a, N-(5-Hydroxypentyl)-4-methylbenzene Sulfonamide] | – | 60 to 61 | – | – |
